Reference: US6080871A, “Sulfonamides and sulfamides as H3 receptor antagonists” (James Black Foundation Limited, priority 1996, dated 2000)

Assays:
H3 receptor = biological target: T1, H3 receptor (Cavia porcellus, UniProt Q9JI35); test: H3 receptor bioassay (functional assay), guinea pig ileal longitudinal muscle myenteric plexus; format: cell-based; conditions: electrically stimulated guinea pig ileum; for Kb: antagonism of R-(α)-methylhistamine E/[A] curve, Schild's methods, variance ±0.15 log units, read-out: pKB (functional assay) (converted)
T1 construct: the longitudinal muscle layer and adhering myenteric plexus was teased away; from tissue; host or cells: ileal longitudinal muscle with adhering myenteric plexus of male Dunkin-Hartley guinea pigs
How it was run: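 Longitudinal muscle-myenteric plexus strips from male Dunkin-Hartley guinea pig ileum were held in Krebs-Henseleit at 37 °C, field-stimulated (0.1 Hz, 0.5 ms, supramaximal voltage) and recorded isometrically. After compound incubation, cumulative R-(α)-methylhistamine curves were taken as % inhibition of twitch height. Antagonist affinity came from curve rightward shift by Schild analysis.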

Histamine H3 = biological target: T2, Histamine H3 (Cavia porcellus, UniProt Q9JI35); test: Histamine H3 radioligand binding assay, [3H]-R-α-methylhistamine, guinea pig ileum longitudinal muscle myenteric plexus membranes; conditions: 3 nM [3H]-R-α-methylhistamine, 165 min, 21±3° C., Cheng Prusoff, variance ±0.12 log units; for Ki: read-out: pK1 (binding assay) (converted)
T2 construct: ileum longitudinal muscle myenteric plexus membranes; from tissue; host or cells: ileum longitudinal muscle myenteric plexus membranes of male Dunkin Hartley guinea pigs
Method: Histamine H3 Radioligand Binding Assay
Male Dunkin Hartley guinea pigs (200-300 g) were used. The small intestine was rapidly removed (cut ~5 cm from caecum and 5 cm from stomach) and placed in ice-cold 20 mM Hepes-NaOH buffer (pH7.4 at 21±3° C.). The tissue was cut into ~10 cm segments, flushed through with ice-cold 20 mM Hepes-NaOH buffer and placed in a beaker containing fresh buffer at 4° C. 10 cm segments of ileum were threaded onto a glass pipette and the longitudinal muscle myenteric plexus was peeled away from the circular muscle using damp cotton-wool. Longitudinal muscle myenteric plexus was immediately placed in ice-cold Viaspan® solution (~100 ml for tissue from 3 guinea pigs) and placed in the refrigerator for 24 hours.
Pre-soaked tissue was weighed and minced with scissors. The tissue was then homogenised in Viaspan® using a polytron (Kinematica AG; PT-DA 3020/2TS, 3×~1-2 s). 50 ml of 500 mM Tris HCl (pH6.9 at 21±3° C.) was added to the tissue and the mixture centrifuged at 39,800×g for 12 min at 4° C. The supernatant was discarded and rehomogenised in 100 ml ice-cold 20 mM Hepes-NaOH buffer (pH7.4 at 21±3° C.) using a teflon-in-glass homogeniser (setting 10; 3×). The homogenate was recentrifuged at 39,800×g and the pellet resuspended in 20 mM Hepes-NaOH buffer (pH7.4 at 21±3° C.), to a tissue concentration of 50 mg.ml^-1, using a polytron (Brinkman, PT10, 3×~1 s).
Guinea pig ileum longitudinal muscle myenteric plexus membranes (400 μl) were incubated for 165 min at 21±3° C. in a final volume of 500 μl with 20 mM Hepes-NaOH buffer containing [^3 H]-R-α-methylhistamine (50 μl; 3 nM) and competing compound. Total and non-specific binding of [^3 H]-R-α-methylhistamine were defined using 50 μl of buffer and 50 μl of 10 μM thioperamide, respectively. The assay was terminated by rapid filtration through Whatman GF/B filters, presoaked (2 hr) in 0. 1% polyethyleneimine,using a Brandell Cell Harvester. The filters were washed (3×3 ml) with ice-cold 50 mM Tris-HCl (pH6.9 at 21±3° C.), transferred into scintillation vials, 5 ml liquid scintillation cocktail was added and after 4 hours the bound radioactivity was determined by counting (4 min) in a Beckman liquid scintillation counter.
Data are analysed using GraphPad prism and the general equation for a competition curve with variable Hill slope (nH).
Y=Non-specific binding+(Total binding-Non-specific binding)/1+10^((logIC.sbsp.50^-X).n.sbsp.H^)
X is the log concentration of competing compound, Y is the binding obtained at each concentration of X, pIC50 is the concentration of the competitor required to compete for half of the specific binding.
The IC50 is converted to the K1 using the Cheng Prusoff equation, […]
IC50 is the concentration of competitor required to compete for half the specific binding, L is the radioligand concentration used, KD is the equilibrium dissociation constant for the radioligand determined by saturation experiments.
Typical variance in the functional assay is ±0.15 log units. Typical variance in the binding assay is ±0.12 log units. This means that if the discrepancy between the two assays is greater than about 0.5 log units, then this difference on average is significant.

T1 sequence (Q9JI35 whole entry): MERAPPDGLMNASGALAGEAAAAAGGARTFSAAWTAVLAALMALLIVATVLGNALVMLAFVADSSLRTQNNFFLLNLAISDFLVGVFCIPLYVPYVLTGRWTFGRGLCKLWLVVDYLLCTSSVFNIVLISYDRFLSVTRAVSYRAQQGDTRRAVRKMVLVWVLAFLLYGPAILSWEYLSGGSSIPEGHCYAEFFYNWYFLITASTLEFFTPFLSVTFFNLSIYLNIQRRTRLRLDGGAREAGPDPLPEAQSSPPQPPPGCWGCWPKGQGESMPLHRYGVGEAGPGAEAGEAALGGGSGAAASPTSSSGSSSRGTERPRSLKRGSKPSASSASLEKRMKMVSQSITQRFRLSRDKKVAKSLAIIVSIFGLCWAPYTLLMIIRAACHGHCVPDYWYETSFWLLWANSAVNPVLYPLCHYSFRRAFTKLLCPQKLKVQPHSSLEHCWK
T2 sequence (Q9JI35 whole entry): as above

Kb (H3 receptor) | pK1 (binding assay) (Histamine H3) | Ki (Histamine H3) | EC50 (H3 receptor; printed in the pKB column, read-out: p[A]50 (functional assay) (converted)) | SMILES
0.00871 µM | – | 0.00776 µM | – | O=S(=O)(NCCCCCc1c[nH]cn1)NCc1ccc(I)cc1 [Example 66, N-[5-(4(5)-Imidazoyl)pentyl]-N'-(4-iodophenyl)methyl-sulfamide]
0.00324 µM | 8.68 | – | – | O=S(=O)(NCCCCc1c[nH]cn1)NCc1ccc(I)cc1 [Example 44, N-[4-(4(5)-Imidazoyl)butyl]-N'-(4-iodophenyl)methyl-sulfamide]

More lines, now with the values behind:

SMILES | Kb (H3 receptor) | pK1 (binding assay) (Histamine H3) | Ki (Histamine H3) | EC50 (H3 receptor; printed in the pKB column, read-out: p[A]50 (functional assay) (converted))
O=S(=O)(Cc1ccc(Cl)cc1)NCCCCCCCCc1c[nH]cn1 [Example 33, N-[8-(4(5)-Imidazoyl)octyl]-(4-chlorophenyl)methanesulfonamide] | 0.229 µM | 7.27 | – | –
O=S(=O)(NCCCc1c[nH]cn1)NCCc1ccc(Cl)cc1 [Example 56, N-[3-(4(5)-Imidazoyl)propyl]-N'-2-(4-chlorophenyl)ethyl-sulfamide] | 0.447 µM | – | 0.138 µM | –
C[C@H](Cc1c[nH]cn1)NS(=O)(=O)c1ccc2ccccc2c1 [Example 71, (R)-(+)-N-[2-(4(5)-Imidazoyl)-1-methyl-ethyl]-2-naphthalenesulfonamide] | – | 8.44 | – | 0.776 µM
